Data published in US20110244569A1, “METHOD OF INDUCING PROLIFERATION AND/OR DIFFERENTIATION OF NEURAL PRECURSOR CELLS BY INTRODUCING PROLACTIN OR WNT3A TO ACTIVATE LATENT NEURAL PRECURSOR CELLS” (priority 2008, published 2011).
Structures can show the parent of a compound that is named as a salt.

Experiments:
[1] = system: primary hippocampal cells; assay: Primary neurosphere culture, hippocampus; assay type: cell-based, mouse; settings: for generation of very large neurospheres (>250 μm) passaged long-term / increase in number of hippocampal neurospheres generated / number of hippocampal neurospheres: 1 ng/mL Wnt3a or 2 ng/mL PRL; for number of hippocampal neurospheres: n=3; for neurosphere number, aged hippocampus: aged (18 month old) hippocampus, n=4
Method: The tissue was enzymatically digested with 0.1% trypsin-EDTA (Gibco/Invitrogen, Eugene, Oreg.) for 7 minutes at 37° C., followed by a wash with 0.014% w/v trypsin inhibitor (type I-S from soybean; Sigma-Aldrich Australia, Sydney, Australia) dissolved in Hepes-buffered minimum essential medium (HEM), which consisted of minimum essential medium (Gibco/Invitrogen) supplemented with 16 mM HEPES (Sigma-Aldrich Australia) and 100 units/ml penicillin/streptomycin (Gibco/Invitrogene). The tissue was centrifuged at 100 rcf for 7 minutes, following which the pellet was resuspended in 1 ml neurosphere growth medium, mechanically triturated until smooth, then filtered through a 40 μm cell sieve (Falcon/BD Biosciences Australia, North Ryde, Australia). The neurosphere growth medium consisted of mouse NeuroCult™ NSC Basal Medium plus mouse NeuroCult™ NSC Proliferation Supplements (StemCell Technologies, Vancouver, Canada) with 2% bovine serum albumin (Roche, Basel, Switzerland) and 2 μg/ml heparin (Sigma-Aldrich Australia). The following growth factors were also included: 20 ng/ml purified mouse receptor-grade EGF (BD Biosciences Australia) and 10 ng/ml recombinant bovine FGF-2 (Roche). After centrifugation at 100 rcf for 7 minutes, the cells were plated at a density of approximately one hippocampus, SVZ or cortex or four olfactory bulbs per 96-well plate (Falcon/BD Biosciences Australia) with 200 μl neurosphere medium per well.
The neurosphere growth medium already contained 4.18 mM KCl. […] This level of potassium is around five times that of the normal physiological concentration of potassium, ˜4 mM. Nicardipine (Sigma-Aldrich), when used, was added to a final concentration of 10 μM. BaCl was used as an alternative to KCl in some experiments at a concentration of 1 mM and GABA at 100 μM. Recombinant mouse Wnt3a (R&D Systems) and recombinant mouse prolactin (PRL; R&D Systems) were added instead of KCl in some experiments at concentrations of 1 ng/mL and 2 ng/mL respectively.
(§1) Primary hippocampal cells were incubated for 10 days, and SVZ, olfactory bulb or cortical cells for 7 days, in humidified 5% CO2 to permit neurosphere formation. The primary neurospheres were then counted and collected for passaging or differentiation. Results of the neurosphere counts were expressed as mean±standard error and statistical analysis was performed using a standard t-Test (two sample assuming equal variance).

SVZ cells = assay: Primary neurosphere culture, SVZ; assay type: cell-based, mouse; settings: for number of SVZ-derived neurospheres: 1 ng/mL Wnt3a or 2 ng/mL PRL, n=2
Method: Adult (6-8 week old) male C57/B16 mice were killed by cervical dislocation, their brains immediately removed and the hippocampus, SVZ, olfactory bulb or cortex dissected. The tissue was enzymatically digested with 0.1% trypsin-EDTA (Gibco/Invitrogen, Eugene, Oreg.) for 7 minutes at 37° C., followed by a wash with 0.014% w/v trypsin inhibitor (type I-S from soybean; Sigma-Aldrich Australia, Sydney, Australia) dissolved in Hepes-buffered minimum essential medium (HEM), which consisted of minimum essential medium (Gibco/Invitrogen) supplemented with 16 mM HEPES (Sigma-Aldrich Australia) and 100 units/ml penicillin/streptomycin (Gibco/Invitrogene). The tissue was centrifuged at 100 rcf for 7 minutes, following which the pellet was resuspended in 1 ml neurosphere growth medium, mechanically triturated until smooth, then filtered through a 40 μm cell sieve (Falcon/BD Biosciences Australia, North Ryde, Australia). The neurosphere growth medium consisted of mouse NeuroCult™ NSC Basal Medium plus mouse NeuroCult™ NSC Proliferation Supplements (StemCell Technologies, Vancouver, Canada) with 2% bovine serum albumin (Roche, Basel, Switzerland) and 2 μg/ml heparin (Sigma-Aldrich Australia). The following growth factors were also included: 20 ng/ml purified mouse receptor-grade EGF (BD Biosciences Australia) and 10 ng/ml recombinant bovine FGF-2 (Roche). After centrifugation at 100 rcf for 7 minutes, the cells were plated at a density of approximately one hippocampus, SVZ or cortex or four olfactory bulbs per 96-well plate (Falcon/BD Biosciences Australia) with 200 μl neurosphere medium per well.
The neurosphere growth medium already contained 4.18 mM KCl. […]
as §1

olfactory bulb cells = assay: Primary neurosphere culture, olfactory bulb; assay type: cell-based, mouse; settings: potassium-activated vs control
Method: (§2) Adult (6-8 week old) male C57/B16 mice were killed by cervical dislocation, their brains immediately removed and the hippocampus, SVZ, olfactory bulb or cortex dissected. The tissue was enzymatically digested with 0.1% trypsin-EDTA (Gibco/Invitrogen, Eugene, Oreg.) for 7 minutes at 37° C., followed by a wash with 0.014% w/v trypsin inhibitor (type I-S from soybean; Sigma-Aldrich Australia, Sydney, Australia) dissolved in Hepes-buffered minimum essential medium (HEM), which consisted of minimum essential medium (Gibco/Invitrogen) supplemented with 16 mM HEPES (Sigma-Aldrich Australia) and 100 units/ml penicillin/streptomycin (Gibco/Invitrogene). The tissue was centrifuged at 100 rcf for 7 minutes, following which the pellet was resuspended in 1 ml neurosphere growth medium, mechanically triturated until smooth, then filtered through a 40 μm cell sieve (Falcon/BD Biosciences Australia, North Ryde, Australia). […]
as §1

cortical cells = assay: Primary neurosphere culture, cortex; assay type: cell-based, mouse; settings: depolarization vs control
Method: as §2, §1

hippocampal neurospheres = assay: Hippocampal neurosphere passaging; assay type: cell-based, mouse
Method: Primary neurospheres from the unstimulated hippocampus were also passaged as single spheres.
Hippocampal neurosphere cultures were initiated by removing 150 μl of the medium from wells containing single neurospheres, treating with 100 μl 0.1% trypsin-EDTA for 2 minutes at room temperature, followed by washing with 100 μl trypsin inhibitor in HEM. The neurospheres were mechanically triturated until dissociated and replated in well plates in 2 ml of complete medium. Neurospheres were passaged every 10 days by centrifuging the neurospheres, removing the medium and incubating in 1 ml of 0.1% trypsin-EDTA for 2 minutes at room temperature. After the addition of an equal volume of trypsin inhibitor, the neurospheres were centrifuged at 100 rcf for 5 minutes and the supernatant removed. Cells were mechanically triturated in 500 μl of complete medium and trypan blue staining was used to evaluate the number of cells, both viable and total number, on a hemocytometer. The passaged cells were then re-plated with complete medium at a density of 1×10^4 cells/cm^2 in tissue culture flasks (Nunc, Rochester, N.Y.) or tissue culture plates (Falcon/BD Biosciences) as appropriate.

[2] = system: primary hippocampal cells; assay: Microarray analysis after KCl depolarization; assay type: cell-based, mouse; settings: following depolarization, P<0.001
Method: Hippocampal tissue was dissected and dissociated as described above and incubated either in the presence or absence of 15 mM KCl for 24 hours. Cells were pelleted and total RNA was isolated using the RNeasy mini kit (Qiagen) and quantitated using the Bioanalyzer 2100 (Agilent). aRNA was prepared from 500 ng of RNA using the Message-Amp™-II Biotin Enhanced Kit (Ambion). A total of 15 μg biotinylated aRNA was fragmented and run on a GeneChip mouse Genome 430A 2.0 Array (Affymetrix) in accordance with the manufacturer's instructions.

[3] = system: latent precursor cell population; assay: Neurosphere culture of FACS-sorted Emx1-GFP / GFAP-GFP cells; assay type: cell-based, mouse
Method: DCX-GFP, Emx1-GFP and GFAP-GFP mice are from the Mutant Mouse Regional Resource Center, The Gene Expression Nervous System Atlas BAC transgenic project (Gong et al., 2002).
Brains were collected and processed. GFP^+ve cells were separated by fluorescence-activated cell sorting (FACS) using a FACS Vantage cell sorter (BD Biosciences). A wild-type littermate control was used to determine background fluorescence levels. For primary neurosphere cultures the cells were plated at a density of 500 cells/well in 96-well plates (Falcon/BD Biosciences, San Jose, Calif.) with 0.2 ml complete medium per well. Complete medium consisted of mouse NeuroCult™ NSC Basal Medium plus mouse NeuroCult™ NSC Proliferation Supplements (StemCell Technologies,
Vancouver, Canada) with 2% bovine serum albumin (Roche, Basel, Switzerland) and 2 μg/ml heparin (Sigma-Aldrich). The following growth factors were also included: 20 ng/ml purified mouse receptor-grade epidermal growth factor (EGF; BD Biosciences Australia) and 10 ng/ml recombinant bovine basic fibroblast growth factor (FGF-2; Roche). Primary cells were incubated for 7 days in humidified 5% CO2 to permit neurosphere formation. The primary neurospheres were then counted and collected for passaging or differentiation. Results of the neurosphere counts were expressed as mean+ or −standard error and statistical analysis was performed using a standard t-Test (two sample assuming equal variance).

C57BL/6 male mice = assay: Pilocarpine-induced seizures; assay type: in vivo, mouse; settings: 350 mg/kg intraperitoneal
Method: Seizures were induced in 6-8 week old C57BL/6 male mice by the administration of pilocarpine, a muscarinic cholinergic agonist. Thirty minutes prior to pilocarpine administration, the mice were injected with 2.5 mg/kg of the cholinergic antagonist scopolamine methyl nitrate (Sigma-Aldrich) to reduce peripheral cholinergic effects. They then received intraperitoneal injections of 350 mg/kg pilocarpine hydrochloride (Sigma-Aldrich). […] Seizures were stopped 2 hours after status epilepticus onset, with an intraperitoneal injection of 5 mg/kg diazepam ([…], Parnell Laboratories Sydney, Australia).

SVZ-derived neurospheres = settings: cited from earlier work
adult female mice = settings: infusion, cited from earlier work
[4] = 10 nM and 30 nM PRL in presence of EGF

Molecule: Wnt3a
- generation of very large neurospheres (>250 μm) passaged long-term [1]: generation of a number of the very large neurospheres
- increase in number of hippocampal neurospheres generated [1]: 2 fold
- number of hippocampal neurospheres [1]: 204±66.1 % of control
- neurosphere number, aged hippocampus [1]: 580±230 % of control
- number of SVZ-derived neurospheres (SVZ cells): 98.5±4.5 % of control

Molecule: [Cl-].[K+] [KCl, potassium chloride]
- increase in number of neurospheres generated ([1]; 20 mM KCl vs control (4 mM) potassium or sodium osmotic control, adult mouse): over 3 fold
- increase in number of neurospheres, stimulated vs control ([1]; 18 month old hippocampus, depolarizing conditions): over 12 fold
- effect on number of neurospheres generated ([1]; KCl as low as 10 mM and as high as 30 mM): significantly increase the number of neurospheres generated
- optimal depolarizing level ([1]; KCl dose response assay): 15 mM
- further increase of 33 week HD hippocampal precursors ([1]; R6/1 Huntington's disease mice, 33 weeks, potassium depolarization in vitro): could not be further increased
- further stimulation of precursors from mice that underwent SE ([1]; depolarizing levels of potassium added in vitro after status epilepticus): no further stimulatory effect
- decrease in neurosphere number (SVZ cells; potassium-induced depolarization, adult SVZ): approx 40%
- increase in number of olfactory bulb neurospheres (olfactory bulb cells): over 3 fold
- size of activated olfactory-bulb neurospheres (olfactory bulb cells): significant increase in the size
- increase in cortex neurosphere number (cortical cells): over 3 fold
- diameter of stimulated neurospheres capable of long term passage (hippocampal neurospheres; all twenty three): > 110 μm
- large primary spheres that could be expanded in culture for up to 10 passages (hippocampal neurospheres; potassium stimulated, standard conditions 0/113): 23 out of 64
- up-regulation of PRL [2]: 6.4 fold
- up-regulation of Wnt3a [2]: 14.4 fold
- SFU ([3]; Emx1+ve cells + KCL): 1/37
- SFU ([3]; Emx1-ve cells + KCL): 1/10896
- SFU ([3]; GFAP+ve cells + KCL): 1/127
- SFU ([3]; GFAP-ve cells + KCL): 1/2220

Molecule: [Ba+2].[Cl-].[Cl-] [BaCl2, barium chloride]
- increase in numbers of neurospheres ([1]; 1 mM BaCl2): over 2 fold

Molecule: CC[C@@H]1C(=O)OC[C@@H]1Cc1cncn1C [pilocarpine, pilocarpine hydrochloride]
- mice in which seizures were observed (C57BL/6 male mice): 70%
- seizing mice that entered status epilepticus (C57BL/6 male mice): 35%
- time to status epilepticus after injection (C57BL/6 male mice): 78 ± 43 min

B1: PRL: recombinant mouse prolactin (PRL; R&D Systems) (protein, UniProt P06879 30-226, looked up)
Prolactin: LPICSAGDCQTSLRELFDRVVILSHYIHTLYTDMFIEFDKQYVQDREFMVKVINDCPTSSLATPEDKEQALKVPPEVLLNLILSLVQSSSDPLFQLITGVGGIQEAPEYILSRAKEIEEQNKQLLEGVEKIISQAYPEAKGNGIYFVWSQLPSLQGVDEESKILSLRNTIRCLRRDSHKVDNFLKVLRCQIAHQNNC
- generation of very large neurospheres (>250 μm) passaged long-term [1]: generation of a number of the very large neurospheres
- increase in number of hippocampal neurospheres generated [1]: 2 fold
- number of hippocampal neurospheres [1]: 217±13 % of control
- neurosphere number, aged hippocampus [1]: 254±23 % of control
- number of SVZ-derived neurospheres (SVZ cells): 100±9 % of control
- effect on number of SVZ-derived neurospheres (SVZ-derived neurospheres; 1 nM PRL): no effect
- increase in number of neurons per neurosphere (SVZ-derived neurospheres; [4]): two-fold
- increase in numbers of SVZ-derived neurospheres (SVZ-derived neurospheres; [4]): up to 35%
- number of neurospheres in vitro, prolactin alone (SVZ-derived neurospheres; without EGF, US 2003/0054998): did not significantly increase
- number of new olfactory interneurons (adult female mice; after 4 weeks): doubled
- BrdU-labeled cells in the forebrain SVZ (adult female mice; US 2003/0054998): increased
- number of proliferating cells in hippocampal dentate gyrus (adult female mice): no effect
